{"source": "patent US20140349297A1", "about": "“FLUORESCENT DYES BASED ON ACRIDINE AND ACRIDINIUM DERIVATIVES” (Almac Sciences (Scotland) Limited, priority 2011, published 2014)", "key": {"[1]": {"target": "T1, recombinant Lck kinase (Homo sapiens, UniProt P06239)", "T1 construct": "purchased EnzoLifeSciences", "T1 sequence (P06239 whole entry, species assumed)": "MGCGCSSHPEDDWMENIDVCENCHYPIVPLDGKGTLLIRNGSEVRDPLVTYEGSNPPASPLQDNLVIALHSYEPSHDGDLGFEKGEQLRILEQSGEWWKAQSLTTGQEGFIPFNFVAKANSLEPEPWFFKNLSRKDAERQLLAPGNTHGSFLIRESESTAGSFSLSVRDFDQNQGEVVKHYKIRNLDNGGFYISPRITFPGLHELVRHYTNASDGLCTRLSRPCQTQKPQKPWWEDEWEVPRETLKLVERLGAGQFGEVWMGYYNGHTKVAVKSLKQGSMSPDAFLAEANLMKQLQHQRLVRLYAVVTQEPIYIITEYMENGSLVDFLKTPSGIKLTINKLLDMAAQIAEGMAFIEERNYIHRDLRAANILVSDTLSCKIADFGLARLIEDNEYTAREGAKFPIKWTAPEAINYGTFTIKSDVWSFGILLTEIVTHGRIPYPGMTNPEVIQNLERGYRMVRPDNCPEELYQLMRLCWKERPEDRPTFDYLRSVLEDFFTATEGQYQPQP", "assay_type": "biochemical", "conditions": "Lck 3.6 mU/well, 1 μM LLD-EPEGIYGVLF substrate; read-out: ATP Km", "description": "Enzyme: Lck (p56Ick) (EnzoLifeSciences, 18 U/m1), 3.6 mU/well\nEnzyme (3.6 mU in 5 μl buffer A) was then added to each well. […] The average lifetime values were converted to pmol phosphopeptide from a standard curve and plots of initial rates of reaction dependent on ATP concentration were used to determine the ATP Km value by non-linear regression fitting using GraphPad Prism (see FIG. 10)."}, "[2]": {"experiment": "Fluorescence lifetimes of acridine derivatives by TCSPC (Table 1)", "assay_type": "physicochemical", "conditions": "excitation 405 nm", "description": "Fluorescence lifetimes were determined by time-correlated single photon counting (TCSPC) acquisition using an Edinburgh Instruments Nanotaurus fluorescence lifetime platereader, using excitation laser 405 nm and either a 438 nm band pass, 450 nm band pass or 473 nm long pass emission filter for detection."}, "[3]": {"experiment": "pH stability of fluorescence lifetime", "assay_type": "physicochemical", "conditions": "1 μM in 20 mM sodium phosphate buffer", "description": "1 μM solutions of 9,10-dimethylacridin-10-ium methyl sulfate in 20 mM sodium phosphate buffer were prepared using 0.2 M monobasic sodium phosphate and 0.2 M dibasic sodium phosphate buffer mixtures, 0.1 M HCl solution was used to adust the pH to <6 and 0.1 M NaOH solution was used to adjust the pH to >8;\nAn important criteria of fluorescence dyes suitable for use in biochemical and cell-based assays is the advantageousness of the fluorescence lifetime being independent of pH in the physiological range 5 to 9."}, "[4]": {"experiment": "Fluorescence analysis of 9,10-dimethylacridin-10-ium methyl sulfate (lifetime decay)", "assay_type": "physicochemical", "description": "Measurements were performed in 10 mM PBS pH 7.4, excitation wavelength 350 nm and emission wavelength 490 nm for steady state, and excitation wavelength 405 nm and emission wavelength 473 nm long pass filter for fluorescence lifetime;\nSteady state measurements were performed on an Edinburgh Instruments FLS920 steady state fluorimeter, with excitation wavelength of 350 nm and emission wavelength of 490 nm. Fluorescence lifetimes were determined by time-correlated single photon counting (TCSPC) acquisition using an Edinburgh Instruments Nanotaurus fluorescence lifetime platereader, using excitation laser 405 nm and a 473 nm long pass emission filter for detection.\nThe fluorescence excitation and emission spectra were measured at 1 μM 9,10-dimethylacridin-10-ium methyl sulfate concentration in phosphate buffered saline (PBS) solution pH 7.4. The fluorescence excitation and emission spectra, and fluorescence lifetime decay curve are shown in FIG. 1(a) and FIG. 1(b) respectively. 9,10-Dimethylacridin-10-ium methyl sulfate has an advantageously long fluorescence lifetime of circa 25-30 ns. In addition, the magnitude of the fluorescence lifetime was maintained across the three buffer systems tested (see Table 1, entry 6)."}, "[5]": {"experiment": "Fluorescence emission profile as a function of pH", "assay_type": "physicochemical", "conditions": "excitation 405 nm", "description": "The fluorescence emission profile was measured as a function of pH upon excitation at 405 nm (FIG. 3)."}, "[6]": {"conditions": "reported, Tanaka et al. 2001; cited from earlier work"}}, "note": "Values joined by “and” are separate entries in the source; they are usually repeats but may differ in a detail not shown here. Equal entries are not always repeated. Structures can show the parent of a compound that is named as a salt."}
{"compound": "Nc1ncnc2c1ncn2[C@@H]1O[C@H](COP(=O)(O)OP(=O)(O)OP(=O)(O)O)[C@@H](O)[C@H]1O", "note": "[ATP]", "values": [{"measurement": "Km", "setting": "[1]", "value": 36.4, "unit": "µM"}]}
{"compound": "Nc1c2ccccc2nc2ccccc12", "note": "[Entry 1]", "values": [{"measurement": "Fluorescence Lifetime", "setting": "[2]; 1 μM in 50 mM AcOH solution", "value": 15.6, "unit": "ns"}, {"measurement": "Fluorescence Lifetime", "setting": "[2]; 1 μM in PBS", "value": 15.6, "unit": "ns"}, {"measurement": "Fluorescence Lifetime", "setting": "[2]; 1 μM in water", "value": 15.7, "unit": "ns"}]}
{"compound": "C[n+]1c2ccccc2c(N)c2ccccc21.[Cl-]", "note": "[Entry 2]", "values": [{"measurement": "Fluorescence Lifetime", "setting": "[2]; 1 μM in 50 mM AcOH solution", "value": 16.4, "unit": "ns"}, {"measurement": "Fluorescence Lifetime", "setting": "[2]; 1 μM in PBS", "value": 16.3, "unit": "ns"}, {"measurement": "Fluorescence Lifetime", "setting": "[2]; 1 μM in water", "value": 16.4, "unit": "ns"}]}
{"compound": "c1ccc2nc3ccccc3cc2c1", "note": "[Entry 3]", "values": [{"measurement": "Fluorescence Lifetime", "setting": "[2]; 1 μM in 50 mM AcOH solution", "value": 29.4, "unit": "ns"}, {"measurement": "Fluorescence Lifetime", "setting": "[2]; 1 μM in PBS", "value": 18.8, "unit": "ns"}, {"measurement": "Fluorescence Lifetime", "setting": "[2]; 1 μM in water", "value": 10.5, "unit": "ns"}]}
{"compound": "Cc1c2ccccc2nc2ccccc12", "note": "[Entry 4]", "values": [{"measurement": "Fluorescence Lifetime", "setting": "[2]; 1 μM in 50 mM AcOH solution", "value": 29.1, "unit": "ns"}, {"measurement": "Fluorescence Lifetime", "setting": "[2]; 1 μM in PBS", "value": 11.7, "unit": "ns"}, {"measurement": "Fluorescence Lifetime", "setting": "[2]; 1 μM in water", "value": 29.1, "unit": "ns"}]}
{"compound": "C[n+]1c2ccccc2cc2ccccc21", "note": "[Entry 5]", "values": [{"measurement": "Fluorescence Lifetime", "setting": "[2]; 1 μM in 50 mM AcOH solution", "value": 32.1, "unit": "ns"}, {"measurement": "Fluorescence Lifetime", "setting": "[2]; 1 μM in PBS", "value": 31.9, "unit": "ns"}, {"measurement": "Fluorescence Lifetime", "setting": "[2]; 1 μM in water", "value": 14.1, "unit": "ns"}]}
{"compound": "Cc1c2ccccc2[n+](C)c2ccccc12", "note": "[Entry 6, 9,10-dimethylacridin-10-ium methyl sulfate]", "values": [{"measurement": "fluorescence lifetime as a function of pH", "setting": "[3]", "value": "stable across the pH range 3 to 10"}, {"measurement": "fluorescence lifetime (decay curve, FIG. 1b)", "setting": "[4]; 10 mM PBS pH 7.4, excitation 405 nm, 473 nm long pass emission filter", "value": 26.2, "unit": "ns"}, {"measurement": "Fluorescence Lifetime", "setting": "[4]; circa, maintained across the three buffer systems tested", "value": "25-30 ns"}, {"measurement": "Fluorescence Lifetime", "setting": "[2]; 1 μM in 50 mM AcOH solution", "value": 29.8, "unit": "ns"}, {"measurement": "Fluorescence Lifetime", "setting": "[2]; 1 μM in PBS", "value": 26.2, "unit": "ns"}, {"measurement": "Fluorescence Lifetime", "setting": "[2]; 1 μM in water", "value": 30.0, "unit": "ns"}, {"measurement": "emission maximum", "setting": "[5]; solutions >pH 10", "value": "425 nm and 450 nm"}, {"measurement": "emission maximum", "setting": "[5]; solutions at pH 3 to 10", "value": "460 nm and 490 nm"}, {"measurement": "pKa of methyl protons at the 9-position", "setting": "[6]", "value": "akin to acetic acid"}]}
